Like-named read-outs stand apart in the source and are kept apart here.
Columns and labels:
Experiment in all cases: KiNativ assay
Format in all cases: binding
PDK1 = PDK1 (Homo sapiens (Human), UniProt O15530); details: H929 live cell
Procedure, shortened: (§1)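 In duplicate, compounds at 10 μM were screened against kinases in H929 live cells using KiNativ, with MS as the detection method for IC50.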

KHS2 = KHS2 (Homo sapiens (Human), UniProt Q8IVH8); details: H929 live cell
Procedure, shortened: (§2)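 H929 live-cell screen at 10 μM, run in duplicate. Kinase occupancy was assessed via the KiNativ platform, with IC50 determined by mass spectrometry.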

MAP2K2 = MAP2K2 (Homo sapiens (Human), UniProt P36507); details: H929 live cell
Procedure, shortened: as §2

ROCK1, ROCK2 = details: H929 live cell; for % inhibition (range): 10 μM
Procedure, shortened: as §1

RIPK3 = RIPK3 (Homo sapiens (Human), UniProt Q9Y572); details: H929 live cell
Procedure, shortened: as §1

CK1d, CK1e = details: H929 live cell
Procedure, shortened: as §2

QSK = QSK (Homo sapiens (Human), UniProt Q9Y2K2); details: H929 live cell
Procedure, shortened: as §1

CK1g1 = CK1g1 (Homo sapiens (Human), UniProt Q9HCP0); details: H929 live cell
Procedure, shortened: as §2

CDK9 = CDK9 (Homo sapiens (Human), UniProt P50750); details: H929 live cell
Procedure, shortened: as §1

GPRK5 = GPRK5 (Homo sapiens (Human), UniProt P34947); details: H929 live cell
Procedure, shortened: as §2

SGK2 = SGK2 (Homo sapiens (Human), UniProt Q9HBY8); details: H929 live cell
Procedure, shortened: as §1

Sequence of RIPK3 (Q9Y572 whole entry): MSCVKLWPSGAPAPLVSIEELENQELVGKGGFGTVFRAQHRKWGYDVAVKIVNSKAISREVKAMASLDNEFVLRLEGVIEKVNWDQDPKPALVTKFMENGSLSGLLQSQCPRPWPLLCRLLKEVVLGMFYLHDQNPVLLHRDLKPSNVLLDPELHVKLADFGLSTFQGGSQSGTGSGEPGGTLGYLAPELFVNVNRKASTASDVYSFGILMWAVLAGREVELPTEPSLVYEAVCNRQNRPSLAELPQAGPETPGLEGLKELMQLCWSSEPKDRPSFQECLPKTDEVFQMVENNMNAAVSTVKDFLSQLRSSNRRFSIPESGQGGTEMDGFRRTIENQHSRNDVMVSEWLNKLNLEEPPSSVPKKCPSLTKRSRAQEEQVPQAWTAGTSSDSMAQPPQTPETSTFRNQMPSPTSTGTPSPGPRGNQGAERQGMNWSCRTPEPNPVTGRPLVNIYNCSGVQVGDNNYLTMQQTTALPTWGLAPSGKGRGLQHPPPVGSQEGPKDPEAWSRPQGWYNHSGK
Sequence of GPRK5 (P34947 whole entry): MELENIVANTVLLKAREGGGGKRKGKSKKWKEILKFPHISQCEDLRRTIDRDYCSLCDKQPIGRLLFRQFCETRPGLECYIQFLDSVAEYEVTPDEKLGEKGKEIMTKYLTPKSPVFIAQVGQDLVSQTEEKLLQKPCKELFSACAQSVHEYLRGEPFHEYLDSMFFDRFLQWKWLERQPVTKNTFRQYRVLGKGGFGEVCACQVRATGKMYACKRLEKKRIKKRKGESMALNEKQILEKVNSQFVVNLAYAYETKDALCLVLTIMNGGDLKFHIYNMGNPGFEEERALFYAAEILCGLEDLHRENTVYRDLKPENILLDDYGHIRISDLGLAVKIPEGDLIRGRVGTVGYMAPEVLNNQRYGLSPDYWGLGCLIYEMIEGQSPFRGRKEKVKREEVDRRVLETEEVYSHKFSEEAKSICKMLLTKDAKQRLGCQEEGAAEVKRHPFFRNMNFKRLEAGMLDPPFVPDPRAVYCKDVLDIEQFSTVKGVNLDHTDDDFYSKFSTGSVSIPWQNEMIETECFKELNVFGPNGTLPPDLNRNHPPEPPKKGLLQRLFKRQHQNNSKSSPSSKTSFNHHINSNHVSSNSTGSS
Sequence of QSK (Q9Y2K2 whole entry): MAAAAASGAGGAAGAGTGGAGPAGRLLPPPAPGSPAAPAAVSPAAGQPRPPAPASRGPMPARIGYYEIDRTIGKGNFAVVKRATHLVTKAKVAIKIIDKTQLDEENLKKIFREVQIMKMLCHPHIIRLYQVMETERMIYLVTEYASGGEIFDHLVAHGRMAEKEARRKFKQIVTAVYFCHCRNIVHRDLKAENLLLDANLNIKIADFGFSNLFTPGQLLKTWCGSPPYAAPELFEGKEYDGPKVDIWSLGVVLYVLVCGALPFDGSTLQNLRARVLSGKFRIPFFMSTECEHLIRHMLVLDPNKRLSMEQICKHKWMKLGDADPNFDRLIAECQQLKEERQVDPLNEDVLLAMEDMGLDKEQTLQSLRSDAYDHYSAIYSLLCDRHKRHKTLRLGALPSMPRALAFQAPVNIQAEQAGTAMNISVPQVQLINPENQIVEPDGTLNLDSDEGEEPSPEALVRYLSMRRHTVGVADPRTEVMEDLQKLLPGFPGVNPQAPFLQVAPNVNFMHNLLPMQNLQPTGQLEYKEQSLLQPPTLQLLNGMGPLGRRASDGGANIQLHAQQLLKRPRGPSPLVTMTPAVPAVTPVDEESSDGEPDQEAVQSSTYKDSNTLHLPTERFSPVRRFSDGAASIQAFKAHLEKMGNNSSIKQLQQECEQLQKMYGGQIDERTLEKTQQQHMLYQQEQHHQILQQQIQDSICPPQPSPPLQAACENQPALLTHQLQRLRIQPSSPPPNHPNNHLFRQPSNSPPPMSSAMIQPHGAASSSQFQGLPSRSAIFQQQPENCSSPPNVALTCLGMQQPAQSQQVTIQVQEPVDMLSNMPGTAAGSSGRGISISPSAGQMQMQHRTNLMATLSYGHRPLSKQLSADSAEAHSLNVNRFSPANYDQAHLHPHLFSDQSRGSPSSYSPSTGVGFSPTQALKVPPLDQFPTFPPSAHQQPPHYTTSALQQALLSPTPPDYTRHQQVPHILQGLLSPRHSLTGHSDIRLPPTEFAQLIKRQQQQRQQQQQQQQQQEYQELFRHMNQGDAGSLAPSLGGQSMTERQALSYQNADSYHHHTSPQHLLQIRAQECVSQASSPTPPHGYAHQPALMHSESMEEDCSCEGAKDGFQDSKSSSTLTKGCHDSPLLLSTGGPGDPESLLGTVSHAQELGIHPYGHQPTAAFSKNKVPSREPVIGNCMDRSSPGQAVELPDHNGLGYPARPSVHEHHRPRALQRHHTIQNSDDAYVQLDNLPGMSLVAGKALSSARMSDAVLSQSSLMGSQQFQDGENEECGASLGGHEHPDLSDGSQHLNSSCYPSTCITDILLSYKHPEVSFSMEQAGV
Sequence of SGK2 (Q9HBY8 whole entry): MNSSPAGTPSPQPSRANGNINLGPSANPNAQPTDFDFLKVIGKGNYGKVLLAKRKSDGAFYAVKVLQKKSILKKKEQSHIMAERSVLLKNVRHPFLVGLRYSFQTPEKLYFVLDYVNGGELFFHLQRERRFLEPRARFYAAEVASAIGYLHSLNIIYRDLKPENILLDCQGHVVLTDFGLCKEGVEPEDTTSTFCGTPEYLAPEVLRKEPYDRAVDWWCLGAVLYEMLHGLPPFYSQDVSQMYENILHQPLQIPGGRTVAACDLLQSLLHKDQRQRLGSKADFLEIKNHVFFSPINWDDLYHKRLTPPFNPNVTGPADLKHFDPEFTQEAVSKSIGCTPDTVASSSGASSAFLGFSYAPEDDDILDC
Sequence of MAP2K2 (P36507 whole entry): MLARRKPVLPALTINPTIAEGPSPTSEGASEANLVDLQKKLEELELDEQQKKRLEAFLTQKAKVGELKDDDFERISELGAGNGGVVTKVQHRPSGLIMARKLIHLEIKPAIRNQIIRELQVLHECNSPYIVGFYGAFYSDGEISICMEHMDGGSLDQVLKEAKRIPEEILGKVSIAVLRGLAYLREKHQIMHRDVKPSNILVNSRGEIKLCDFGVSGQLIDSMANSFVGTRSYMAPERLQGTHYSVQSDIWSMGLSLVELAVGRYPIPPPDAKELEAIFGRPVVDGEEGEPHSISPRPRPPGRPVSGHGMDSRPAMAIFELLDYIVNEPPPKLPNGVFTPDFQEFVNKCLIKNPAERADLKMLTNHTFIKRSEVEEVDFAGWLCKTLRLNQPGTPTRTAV
Sequence of CK1g1 (Q9HCP0 whole entry): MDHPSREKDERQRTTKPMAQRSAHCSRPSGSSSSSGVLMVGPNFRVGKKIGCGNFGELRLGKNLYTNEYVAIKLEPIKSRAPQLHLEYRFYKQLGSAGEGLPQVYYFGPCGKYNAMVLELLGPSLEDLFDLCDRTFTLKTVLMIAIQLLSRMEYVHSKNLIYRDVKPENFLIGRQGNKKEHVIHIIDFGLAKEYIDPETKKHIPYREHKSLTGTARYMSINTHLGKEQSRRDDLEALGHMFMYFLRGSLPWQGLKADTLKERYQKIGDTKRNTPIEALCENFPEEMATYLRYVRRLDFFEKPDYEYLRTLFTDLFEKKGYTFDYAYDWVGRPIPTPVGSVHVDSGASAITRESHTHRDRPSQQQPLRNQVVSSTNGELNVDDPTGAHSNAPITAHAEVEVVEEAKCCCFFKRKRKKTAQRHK
Sequence of KHS2 (Q8IVH8 whole entry): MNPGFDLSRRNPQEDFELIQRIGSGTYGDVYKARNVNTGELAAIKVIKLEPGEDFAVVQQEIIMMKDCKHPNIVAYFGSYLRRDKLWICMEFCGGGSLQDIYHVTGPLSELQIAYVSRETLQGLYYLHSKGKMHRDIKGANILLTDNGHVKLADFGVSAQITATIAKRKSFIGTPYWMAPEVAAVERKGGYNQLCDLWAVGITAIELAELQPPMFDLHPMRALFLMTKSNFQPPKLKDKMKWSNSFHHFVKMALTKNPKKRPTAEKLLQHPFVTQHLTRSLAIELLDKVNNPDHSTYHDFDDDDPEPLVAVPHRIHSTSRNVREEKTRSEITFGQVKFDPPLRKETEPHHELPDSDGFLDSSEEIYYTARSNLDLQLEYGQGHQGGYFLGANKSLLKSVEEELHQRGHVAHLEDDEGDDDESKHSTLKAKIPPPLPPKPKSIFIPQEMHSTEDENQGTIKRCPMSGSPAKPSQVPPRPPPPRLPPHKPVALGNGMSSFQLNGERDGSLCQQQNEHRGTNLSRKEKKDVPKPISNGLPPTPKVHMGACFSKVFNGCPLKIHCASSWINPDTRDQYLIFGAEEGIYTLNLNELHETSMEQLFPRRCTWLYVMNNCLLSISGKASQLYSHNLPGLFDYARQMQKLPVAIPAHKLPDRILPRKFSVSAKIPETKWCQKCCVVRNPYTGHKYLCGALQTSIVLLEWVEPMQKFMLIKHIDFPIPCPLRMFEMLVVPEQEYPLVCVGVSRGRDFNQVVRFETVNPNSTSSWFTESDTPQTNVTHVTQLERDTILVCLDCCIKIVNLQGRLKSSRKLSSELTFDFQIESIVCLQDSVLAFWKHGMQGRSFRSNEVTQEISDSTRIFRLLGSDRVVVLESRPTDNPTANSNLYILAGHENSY

Structure (SMILES)	inhibition at 10 µM (PDK1; read-out: % inhibition (range))	inhibition at 10 µM (PDK1; read-out: inhibition (10 μM))	inhibition at 10 µM (KHS2; read-out: % inhibition (range))	inhibition at 10 µM (KHS2; read-out: inhibition (10 μM))	inhibition at 10 µM (MAP2K2; read-out: % inhibition (range))	inhibition at 10 µM (MAP2K2; read-out: inhibition (10 μM))	% inhibition (range) (ROCK1, ROCK2)	inhibition (10 μM) (ROCK1, ROCK2)	inhibition at 10 µM (RIPK3; read-out: % inhibition (range))	inhibition at 10 µM (RIPK3; read-out: inhibition (10 μM))	inhibition (10 μM) (CK1d, CK1e)	inhibition at 10 µM (QSK; read-out: % inhibition (range))	inhibition at 10 µM (QSK; read-out: inhibition (10 μM))	inhibition at 10 µM (CK1g1; read-out: % inhibition (range))	inhibition at 10 µM (CK1g1; read-out: inhibition (10 μM))	inhibition at 10 µM (CDK9; read-out: % inhibition (range))	inhibition at 10 µM (CDK9; read-out: inhibition (10 μM))	inhibition at 10 µM (GPRK5; read-out: % inhibition (range))	inhibition at 10 µM (GPRK5; read-out: inhibition (10 μM))	inhibition at 10 µM (SGK2; read-out: % inhibition (range))	other results
Nc1ncc(-c2cccc([N+](=O)[O-])c2F)cc1-c1ccc2c(c1)CCNC2=O [Compound I-9, 6-(2-amino-5-(2-fluoro-3-nitrophenyl)pyridin-3-yl)-3,4-dihydroisoquinolin-1(2H)-one]	0%	28.1%	50 to 75%	69.5%	0%	-8.7%	0.0%	−55.8%	0%	-33.4%	>95%	50 to 75%	72.8%	75 to 90%	> 85%	50 to 75%	65.8%	0%	19.6%	0%	% inhibition (range) (CK1d, CK1e; 10 μM): >90%; inhibition at 10 µM (SGK2; read-out: inhibition (10 μM)): -5.4%
Nc1ncc(-c2cccc3ncsc23)cc1-c1ccc2c(c1)CCNC2=O [Compound I-13, 6-(2-amino-5-(benzo[d]thiazol-7-yl)pyridin-3-yl)-3,4-dihydroisoquinolin-1(2H)-one]	0%	17.5%	0%	1.7%	0%	-36.7%	0.0%	−11.4%	0%	-25.9%	58.9%	35 to 50%	47.8%	75 to 90%	> 85%	35 to 50%	41.1%	0%	-12%	0%	inhibition at 10 µM (SGK2; read-out: inhibition (10 μM)): 22.1%

From patent US10710978B2, “STK4 inhibitors for treatment of hematologic malignancies” (Dana-Farber Cancer Institute, Inc., priority 2015, dated 2020)
